Data reported in patent US20190262457A1, “NOVEL ALKYLATING AGENT” (CHIBA-PREFECTURE, priority 2016, published 2019).
Where two headings read alike, the source gives them in different places.

Tests used:
[1] = known log-P of calibration compounds; cited from earlier work
[2] = test system: RKO cells; assay: Cytotoxicity and IC50 comparison with CBI by WST assay, 48 hours; assay type: cell-based, human; settings: Homo sapiens, WST-8
Procedure: (§1) From the cell lines mentioned above, a large intestine cancer cell line SW480 was used as cells expressing PD-1, and a large intestine cancer cell line RKO was used as cells expressing PD-L1. An experiment was conducted to compare toxicity and IC50 between the PIP-drug conjugate compound CCC07-01 and the alkylating agent CBI used as a drug conjugate therein. The cells of each line were inoculated at 3000 cells/well to a 96-well microplate and cultured overnight. On the next day, the cells were treated with the PIP-CBI conjugate (CCC07-01) or CBI having a concentration of 0.1, 1, 10, 30, 100, 300, or 1000 nM (1 μM) for 48 hours. Then, WST-8 reagent was added to each well using Cell counting kit-8, and the mixture was reacted for 2 hours. Then, the cell count was calculated at a wavelength of 450 nm by the colorimetric analysis method using a microplate reader. The method for calculating the cell count involved: 1) obtaining the mean value of a medium alone, 2) subtracting the mean value of the medium from each well, 3) obtaining the mean value of DMSO, 4) dividing the medium mean value-subtracted value by the mean value of DMSO and then multiplying by 100, and 5) obtaining the mean value of each treatment group and a standard deviation, and preparing a graph. IC50 was calculated according to the following expression: IC50=10(LOG(A/B)×(50−C)/(D−C)+LOG(B) wherein A: a higher concentration of two concentrations sandwiching 50%, B: a lower concentration of two concentrations sandwiching 50%, C: the rate of inhibition at B, and D: the rate of inhibition at A.

[3] = test system: SW480 cells; assay: as above; assay type: cell-based, human; settings: Homo sapiens, WST-8
Procedure: as §1

[4] = test system: PD-L1 gene; assay: Experiment to silence PD-L1 gene by real-time PCR, CCC07-03; assay type: cell-based, human
Procedure: (§2) RKO cells were cultured at 1×10^5 cells/well in a 6-well plate. On the next day, the cells were treated with 0, 5, 50, or 500 nM CCC07-03 for 6 hours, 24 hours, or 48 hours. The cells were recovered, and total RNA was extracted therefrom. The extraction employed AllPrep DNA/RNA Mini Kit (Qiagen N.V., CA). Next, cDNA was prepared by reverse transcription with the extracted RNA as a template using Super Script VILO™ Master Mix (Invitrogen Corp., CA) and subjected to qPCR. The qPCR conditions involved a holding stage at 50° C. for 2 min and 95° C. for 10 min, a cycling stage (40 cycles) at 95° C. for 15 sec and at 60° C. for 1 min, and a melt curve stage at 95° C. for 15 sec, at 60° C. for 1 min, at 95° C. for 30 sec, and at 60° C. for 15 sec. A relative expression level was quantified with GAPDH as a control. The PCR of PD-L1 employed the following primer set.

[5] = test system: CTLA4 gene; assay: Experiment to silence CTLA4 gene by real-time PCR, CCC07-03; assay type: cell-based, human; settings: A2058 cells
Procedure: as §2, with “A2058” for “RKO”, “GAPDH (primers: SEQ ID NOs: 21 and 22)” for “GAPDH”, “CTLA4” for “PD-L1”

[6] = test system: mouse Pd-11 gene; assay: Experiment to silence mouse Pd-11 gene by real-time PCR; assay type: cell-based; settings: B16F1 cells
Procedure: as §2, with “B16F1” for “RKO”, “100, 200, 300, 400,” for “5, 50,”, “CCC07-04” for “CCC07-03”, “(3-tubulin” for “GAPDH”, “Pd-11” for “PD-L1”

[7] = test system: CTLA4 gene; assay: Study on CTLA4 gene silencing by negative control polyamide CCC07-04; assay type: cell-based, human; settings: A2058 cells
Procedure: as §2, with “A2058” for “RKO”, “CCC07-04” for “CCC07-03”, “GAPDH (primers: SEQ ID NOs: 21 and 22)” for “GAPDH”, “CTLA4” for “PD-L1”

[8] = known log-P of calibration compounds; cited from earlier work; remark: listed apart in the source
[9] = test system: malignant melanoma; settings: phase III clinical trial; cited from earlier work
[10] = 24 hours or later after administration

N#Cc1ccccc1 [Benzonitrile]
logPow [1]: 1.56

Oc1cc2c(c3ccccc13)C(CCl)CN2 (stereo not shown) [CBI, 1-chloromethyl-5-hydroxy-1,2-dihydro-3H-benzo [e]indole, reference compound]
IC50 [2]: 3 nM
IC50 [3]: 10 nM

CC(=O)Nc1cn(C)c(C(=O)Nc2cn(C)c(C(=O)Nc3cc(C(=O)NCCC(=O)Nc4cn(C)c(C(=O)Nc5cc(C(=O)Nc6cc(C(=O)NCCCC(=O)Nc7cn(C)c(C(=O)Nc8cn(C)c(C(=O)Nc9cc(C(=O)NCCC(=O)Nc%10cc(C(=O)Nc%11ccc%12[nH]c(C(=O)N%13CC(CCl)c%14c%13cc(O)c%13ccccc%14%13)cc%12c%11)n(C)c%10)n(C)c9)n8)n7)n(C)c6)n(C)c5)n4)n(C)c3)n2)n1 (stereo not shown) [CCC07-03]
expression of PD-L1 ([4]; RKO cells, 50 nM, 24 hours): statistically significantly decreased
expression of PD-L1 ([4]; RKO cells, 500 nM, 6 hours): tended to be decreased
expression of PD-L1 ([4]; RKO cells, 5, 50, 500 nM, 48 hours): decreased according to the concentration
expression of CTLA-4 ([5]; 500 nM, 24 hours): markedly decreased
expression of CTLA-4 ([5]; 6 hours): elevated

CC(=O)Nc1cn(C)c(C(=O)Nc2cn(C)c(C(=O)Nc3cc(C(=O)NCCC(=O)Nc4cc(C(=O)Nc5cn(C)c(C(=O)Nc6cn(C)c(C(=O)NCCCC(=O)Nc7cc(C(=O)Nc8cc(C(=O)Nc9cc(C(=O)NCCC(=O)Nc%10cn(C)c(C(=O)Nc%11ccc%12[nH]c(C(=O)N%13CC(CCl)c%14c%13cc(O)c%13ccccc%14%13)cc%12c%11)n%10)n(C)c9)n(C)c8)n(C)c7)n6)n5)n(C)c4)n(C)c3)n2)n1 (stereo not shown) [CCC07-04]
expression of Pd-11 ([6]; 100-500 nM, 6 hours): statistically significantly decreased
state of the cells (cell death suggested) [6, 10]: All the mouse B16F1 cells floated
expression of CTLA-4 ([7]; 6 hours): elevated
state of the cells (cell death suggested) [7, 10]: All the cells floated

CCOC(C)=O [Ethyl acetate]
logPow [1]: 0.73

c1ccc2[nH]ccc2c1 [Indole]
logPow [1]: 2.14
logPow [8]: 2.14

ipilimumab: anti-CTLA-4 antibody
objective response rate (ORR) [9]: 11%
